Test results published in US20230068020A1, “MACROLIDE COMPOUND AND ITS USE OF TREATMENT CHRONIC RESPIRATORY DISEASE” (priority 2020, published 2023).
In brackets after ≈: the same amount, converted by molar mass.

Assays:
Assay type in all cases: cell-based
[1] = test system: Acinetobacter baumanii ATCC 17978; assay: Antibacterial activity, agar dilution MIC; conditions: Acinetobacter baumannii, ATCC17978, 20-24 hrs incubation, read-out: minimum inhibitory concentration MIC
Experimental: (§1) The antibacterial activity of Erythromycin and compounds of examples were evaluated by the agar dilution method, following the guidelines of the CLSI. […] Briefly, bacteria were grown overnight in adapted media (MHIIA with 5% of sheep blood for Streptococcus pneumoniae and Haemophilus influenzae, and MHIIA for the other bacteria strains) at 35° C., 5% CO2.
(§2) Cultures were centrifuged at 3000×g for 15 min. Pellets were diluted with 5 mls cold PBS and the OD600nm was adjusted to 10^8 CFU.mL^−1 with a spectrometer. Bacteria were then added to 96-well test plates. Compounds were diluted in DMSO in a 2 fold steps from 20 mg/ml in DMSO in 96 well plated and transferred to the test plate. During the incubation, the plate was maintained at 35° C., 5% CO2.
(§3) The MICs for Erythromycin and compounds of examples were determined after 20-24 hrs incubation.

[2] = test system: Acinetobacter baumannii ATCC-BAA-1605; assay: Antibacterial activity, agar dilution MIC; conditions: ATCCBAA1605, 20-24 hrs incubation, read-out: minimum inhibitory concentration MIC
Experimental: as §1, §2, §3

[3] = test system: Enterococcus faecalis ATCC 29212; assay: Antibacterial activity, agar dilution MIC; conditions: ATCC29212, 20-24 hrs incubation, read-out: minimum inhibitory concentration MIC
Experimental: as §1, §2, §3

[4] = test system: Haemophilus influenzae ATCC 49247; assay: Antibacterial activity, agar dilution MIC; conditions: ATCC49247, 20-24 hrs incubation, read-out: minimum inhibitory concentration MIC
Experimental: as §1, §2, §3

[5] = test system: Moraxella catarrhalis ATCC 43617; assay: Antibacterial activity, agar dilution MIC; conditions: ATCC43617, 20-24 hrs incubation, read-out: minimum inhibitory concentration MIC
Experimental: as §1, §2, §3

[6] = test system: Staphylococcus aureus ATCC 29213; assay: Antibacterial activity, agar dilution MIC; conditions: ATCC29213, 20-24 hrs incubation, read-out: minimum inhibitory concentration MIC
Experimental: as §1, §2, §3

[7] = test system: Staphylococcus aureus NRS 384; assay: Antibacterial activity, agar dilution MIC; conditions: NRS384, 20-24 hrs incubation, read-out: minimum inhibitory concentration MIC
Experimental: as §1, §2, §3

[8] = test system: Streptococcus pneumoniae ATCC 49619; assay: Antibacterial activity, agar dilution MIC; conditions: ATCC49619, 20-24 hrs incubation, read-out: minimum inhibitory concentration MIC
Experimental: as §1, §2, §3

[9] = test system: Streptococcus pneumoniae ATCC 6301; assay: Antibacterial activity, agar dilution MIC; conditions: ATCC6301, 20-24 hrs incubation, read-out: minimum inhibitory concentration MIC
Experimental: as §1, §2, §3

[10] = test system: Streptococcus pyogenes ATCC BAA-572; assay: Antibacterial activity, agar dilution MIC; conditions: ATCCBAA572, 20-24 hrs incubation, read-out: minimum inhibitory concentration MIC
Experimental: as §1, §2, §3

[11] = test system: THP-1 cell; assay: Differentiation of monocyte to macrophage in THP-1 cell line; conditions: for EC50: THP-1 differentiate to macrophage, PMA, 96 hrs incubation; for Emax / Maximal activation level: ratio of best effect of compound to that of erythromycin 100 uM, THP-1 differentiation; for Emax: read-out: Maximal activation level
Experimental: The THP-1 cell line was purchased from ATCC (American Type Culture Collection, Manassas, Va.). Cells were maintained in growth medium (RPMI-1640) with supplemented with 10% heat inactivated bovine serum, 100× Glutamax medium and 0.05 mM β-Mercaptoethanol at 37° C. under 5% CO2. Compounds were dissolved in 0.1% DMSO. Erythromycin was used as a positive control.
For the assessment of the effect of compounds of the present invention on differentiation of monocyte to macrophage in THP-1 cell line, cells were collected and centrifuged at 900 rpm for 4 minutes. The cell density was adjusted to 2.5×10^5/mL. cell suspension of 400 μL was added to each well of 48-well plate following the plate layout. PMA 1 mg, a compound can induce monocyte differentiation, was dissolved in 10 mL DMSO to form 100 μg/mL solution and aliquote it into 1 mL per vial. 1 mL solution can be further aliquoted into 10 μL per vial and stored the aliquots at −20° C. Make 10-fold dilution of PMA with DMSO and then 500-fold dilution with complete medium. 50 μL solution were then added to each well of 48-well plate following the plate layout. Erythromycin and compounds of examples at stock concentration of 10 mM was serially diluted at 10-fold in DMSO. 50 μL solution was added to each well of 48-well plate following the plate layout. After 96 hrs incubation at 37° C., 5% CO2, the plate was washed with DPBS for three times to remove non-adherent cells for three times. Complete medium 180 μL and alarmar blue 20 μL was added to each well. The fluorescent intensity was read at excitation 530 nm and emission 590 nm using PerkinElmer Victor3 after 3 hours plate incubation.
The differentiation activity of compounds of Examples is compared to that of 100 μM erythromycin and the results are shown in FIG. 1 and Table 3.

[12] = test system: THP-1 cell; assay: Cell viability (LD50) in THP-1 differentiation test
Experimental: The medium lethal dose (LD50) is the dosage of a compound that reduces the cell viability by 50%, and is determined using non-linear logistic regression.

[13] = test system: IL-8 expression in BEAS-2B cell; assay: LPS induced IL-8 release by BEAS-2B (ELISA); conditions: for Maximum Inhibition: IL-8 expression in BEAS-2B cells, LPS; for IC10: concentration inhibiting IL-8 production on BEAS-2B by 10%, LPS 20 μg/mL
Experimental: The inhibitory effect of compounds of Examples on the IL-8 expression in BEAS-2B cell was tested using the following method. BEAS-2B was purchased from ATCC (American Type Culture Collection, Manassas, Va.). Cells were maintained in growth medium (LHC-9) and cultured at 37° C. under 5% CO2. Compounds were dissolved in 0.1% DMSO. Erythromycin was used as a positive control.
For the assessment of the effect of compounds of Examples on IL-8 expression inhibition in BEAS-2B cell line, cells were plated in 24 well plate at a density of 100,000/mL, in a final volume of 1 mL of assay medium. Cells were incubated at 37° C., 5% CO2 for 1 day. After the incubation, compounds were added at day 2 and LPS was added at day 3. A compound source plate was prepared by triplicate five-point 10-fold or 2-fold serial dilutions in DMSO, beginning at 1 mM (final top concentration of compounds of Examples in the assay was 100 μM and the DMSO was 0.1%). The positive control consisted of cells treated with 100 μM erythromycin and negative control was consisted of 0.1% DMSO treated cells. LPS stock solution at 5 mg/mL was made by dissolving 10 mg of LPS powder into 2 mL of ddH2O and aliquoted to 100 μL per vial. Final concentration of LPS in the assay was […] by making 125-fold dilution of stock solution with medium.
Specific immunoreactivity for IL-8 in culture supernatants were measured by a commercially available ELISA kits (R&D Systems, Inc., Minneapolis, Minn.). Each sample was assayed in duplicates as recommended by the manufacture. The concentration of compounds of Examples inhibiting IL-8 production on BEAS-2B by 10% was estimated from a 4-parametric of the normalized dose response curve. (IC10)

[14] = test system: BEAS-2B cell; assay: Cell viability (LD10) in BEAS-2B IL-8 test; conditions: BEAS-2B cell viability
From the text: The lethal dose (LD10) is the dosage of a compound that reduces the cell viability by […], and is estimated from non-linear logistic regression.

[15] = dosage that reduces the cell viability by 50%, THP-1

## CC[C@H]1OC(=O)[C@H](C)[C@@H](O[C@H]2C[C@@](C)(OC)[C@@H](O)[C@H](C)O2)[C@H](C)[C@@H](O[C@H]2C[C@@H](N(C)C)C[C@@H](C)O2)[C@](C)(O)C[C@@H](C)C(=O)[C@H](C)[C@@H](O)[C@]1(C)O [LY101-2, (3R,4S,5S,6R,9R,11R,12R,13S,14R)-6-(((2S,4S,6R)-4-(dimethylamino)-6-methyltetrahydro-2H-pyran-2-yl)oxy)-14-ethyl-7,12,13-trihydroxy-4-(((2R,4R,5S,6S)-5-hydroxy-4-methoxy-4,6-dimethyltetrahydro-2H-pyran-2-yl)oxy)-3,5,7,9,11,13-hexamethyloxacyclotetradecane-2,10-dione]
[1]
  MIC: > 128 µg/mL
[2]
  MIC: > 128 µg/mL
[3]
  MIC: > 128 µg/mL
[4]
  MIC: > 128 µg/mL
[5]
  MIC: > 128 µg/mL
[6]
  MIC: 64 µg/mL (≈ 89.1 µM)
[7]
  MIC: > 128 µg/mL
[8]
  MIC: 16 µg/mL (≈ 22.3 µM)
[9]
  MIC: 64 µg/mL (≈ 89.1 µM)
[10]
  MIC: 64 µg/mL (≈ 89.1 µM)
[11]; Homo sapiens
  EC50: 0.3 ± 0.03 µM
  Emax: 650 ± 170%
[12]; human
  LD50: 4.6 ± 1.3 µM

## CC[C@H]1OC(=O)[C@H](C)[C@@H](OC2CC(C)(OC)C(O)C(C)O2)[C@H](C)[C@@H](OC2CC(NC)CC(C)O2)[C@@]2(C)CC(C)=C(O2)[C@H](C)[C@@H](O)[C@]1(C)O (stereo partly shown) [LY101-6]
[11]
  EC50: 11.5 ± 3.2 µM
  Maximal activation level: 3.9 ± 0.8
[12]; [15]
  LD50: 103.2 ± 11.4 µM

## CC[C@H]1OC(=O)[C@H](C)[C@@H](OC2CC(C)(OC)C(O)C(C)O2)[C@H](C)[C@@H](OC2CC(N(C)C(C)C)CC(C)O2)[C@@]2(C)CC(C)=C(O2)[C@H](C)[C@@H](O)[C@]1(C)O (stereo partly shown) [LY101-24]
[11]
  EC50: 6.8 ± 1.4 µM
  Maximal activation level: 7.0 ± 1.6
[12]; [15]
  LD50: 56.9 ± 14.0 µM
[13]
  Maximum Inhibition: 42%
  IC10: 10 µM
[14]
  LD10: 50 µM

## CC[C@H]1OC(=O)[C@H](C)[C@@H](OC2CC(C)(OC)C(O)C(C)O2)[C@H](C)[C@@H](OC2CC(N(C)C(C)=O)CC(C)O2)[C@@]2(C)CC(C)=C(O2)[C@H](C)[C@@H](O)[C@]1(C)O (stereo partly shown) [LY101-27]
[11]
  EC50: 12.2 ± 4.6 µM
  Maximal activation level: 5.3 ± 1.5
[12]; [15]
  LD50: 121.1 ± 7.8 µM
[13]
  Maximum Inhibition: 40%
  IC10: 10 µM
[14]
  LD10: 100 µM

## CC[C@H]1OC(=O)[C@H](C)[C@@H](OC2CC(C)(OC)C(O)C(C)O2)[C@H](C)[C@@H](OC2CC(N(C)C)CC(C)O2)[C@@](C)(O)CC(C)[C@H](N)[C@H](C)[C@@H](O)[C@]1(C)O (stereo partly shown) [LY101-30]
[11]; Homo sapiens
  EC50: 36.8 ± 20.1 µM
  Emax: 610 ± 120%
[12]; human
  LD50: 65.3 ± 7.1 µM

## CC[C@H]1OC(=O)[C@H](C)[C@@H](OC2CC(C)(OC)C(O)C(C)O2)[C@H](C)[C@@H](OC2CC(NC)CC(C)O2)[C@@](C)(O)C[C@@H](C)[C@H](O)[C@H](C)[C@@H](O)[C@]1(C)O (stereo partly shown) [LY101-31]
[11]; Homo sapiens
  EC50: 32.8 ± 2.5 µM
  Emax: 620 ± 150%
[12]; human
  LD50: 115.0 ± 10.4 µM

## CC[C@H]1OC(=O)[C@H](C)[C@@H](OC2CC(C)(OC)C(O)C(C)O2)[C@H](C)[C@@H](OC2CC(N(C)C(C)=O)CC(C)O2)[C@@](C)(O)C[C@@H](C)[C@H](O)[C@H](C)[C@@H](O)[C@]1(C)O (stereo partly shown) [LY101-33]
[11]; Homo sapiens
  EC50: 22.6 ± 5.7 µM
  Emax: 314 ± 1%
[12]; human
  LD50: 110.0 ± 12.1 µM
[13]
  Maximum Inhibition: 25%
  IC10: 20 µM
[14]
  LD10: 60 µM

## CC[C@H]1OC(=O)[C@H](C)[C@@H](O)[C@H](C)[C@@H](OC2CC(N(C)C)CC(C)O2)[C@@](C)(O)C[C@@H](C)/C(=N\OCOCCOC)[C@H](C)[C@@H](O)[C@]1(C)O (stereo partly shown) [LY101-40]
[11]; Homo sapiens
  EC50: 106 µM
  Emax: 180%
[12]; human
  LD50: 100 µM

## CC[C@H]1OC(=O)[C@H](C)[C@@H](OC2CC(C)(OC)C(O)C(C)O2)[C@H](C)[C@@H](OC2CC(N(C)C)CC(C)O2)[C@@](C)(O)C[C@@H](C)CN(C)[C@H](C)[C@@H](O)[C@]1(C)O (stereo partly shown) [LY101-44]
[11]; Homo sapiens
  EC50: 1.2 ± 0.2 µM
  Emax: 450 ± 90%
[12]; human
  LD50: 20.4 ± 8.4 µM

## CC[C@H]1OC(=O)[C@H](C)[C@@H](OC2CC(C)(OC)C(O)C(C)O2)[C@H](C)[C@@H](OC2CC(N(C)C(C)C)CC(C)O2)[C@@](C)(O)C[C@@H](C)CN(C)[C@H](C)[C@@H](O)[C@]1(C)O (stereo partly shown) [LY101-47]
[11]; Homo sapiens
  EC50: 4.3 ± 1.8 µM
  Emax: 310 ± 110%
[12]; human
  LD50: 64.7 ± 17.9 µM

## CC[C@H]1OC(=O)[C@H](C)[C@@H](OC2CC(C)(OC)C(O)C(C)O2)[C@H](C)[C@@H](OC2CC(N(C)C(C)=O)CC(C)O2)[C@@](C)(O)C[C@@H](C)CN(C)[C@H](C)[C@@H](O)[C@]1(C)O (stereo partly shown) [LY101-48]
[11]; Homo sapiens
  EC50: 18.5 ± 4.2 µM
  Emax: 420 ± 110%
[12]; human
  LD50: 111.0 ± 13.6 µM
